Results from the supplement of paper PMC10307832.

Assays:
Test in all cases: relative viability (nuclei count vs DMSO), 5 days (fraction); higher = more cells survive
[1] = compound: C=C(c1ccc(C(=O)O)cc1)c1cc2c(cc1C)C(C)(C)CCC2(C)C [Bexarotene] + NC(=O)Nc1cc(-c2cccc(F)c2)sc1C(=O)N[C@H]1CCCNC1 [AZD7762] (partner 0.2 µM)
Method in brief: (§1)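 Relative viability equals treated-well nuclei counts divided by vehicle-well nuclei counts. Counts came from 4× images of lung cancer cell lines grown in 1536-well plates for 5 days after pin-tool dosing on the day after seeding. Dosing used one drug alone or a fixed anchor-drug dose plus five library-drug doses (not always all listed) in √10 steps, and values are medians of duplicate plates.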

[2] = compound: C=C(c1ccc(C(=O)O)cc1)c1cc2c(cc1C)C(C)(C)CCC2(C)C [Bexarotene] + CC(C)C[C@H](NC(=O)[C@H](Cc1ccccc1)NC(=O)c1cnccn1)B(O)O [Bortezomib] (partner 0.002 µM)
Method in brief: as §1

[3] = compound: C=C(c1ccc(C(=O)O)cc1)c1cc2c(cc1C)C(C)(C)CCC2(C)C [Bexarotene] + Nc1ncn([C@H]2C[C@H](O)[C@@H](CO)O2)c(=O)n1 [Decitabine] (partner 2 µM)
Method in brief: as §1

[4] = compound: C=C(c1ccc(C(=O)O)cc1)c1cc2c(cc1C)C(C)(C)CCC2(C)C [Bexarotene] + Cc1cc(Nc2cc(N3CCN(C)CC3)nc(Sc3ccc(NC(=O)C4CC4)cc3)n2)n[nH]1 [Tozasertib] (partner 0.1 µM)
Method in brief: as §1

| Cell Line | relative viability ([1]; first compound 0.08 µM) | relative viability ([1]; first compound 0.253 µM) | relative viability ([1]; first compound 0.8 µM) | relative viability ([1]; first compound 2.53 µM) | relative viability ([1]; first compound 8 µM) | relative viability ([2]; first compound 0.08 µM) | relative viability ([2]; first compound 0.253 µM) | relative viability ([2]; first compound 0.8 µM) | relative viability ([2]; first compound 2.53 µM) | relative viability ([2]; first compound 8 µM) | relative viability ([3]; first compound 0.08 µM) | relative viability ([3]; first compound 0.253 µM) | relative viability ([3]; first compound 0.8 µM) | relative viability ([3]; first compound 2.53 µM) | relative viability ([3]; first compound 8 µM) | relative viability ([4]; first compound 0.08 µM) | relative viability ([4]; first compound 0.253 µM) | relative viability ([4]; first compound 0.8 µM) | relative viability ([4]; first compound 2.53 µM) | relative viability ([4]; first compound 8 µM) |
| --- | --- | --- | --- | --- | --- | --- | --- | --- | --- | --- | --- | --- | --- | --- | --- | --- | --- | --- | --- | --- |
| NCI-H1792 | 0.64 | 0.572 | 0.526 | 0.593 | 0.526 | 0.871 | 0.981 | 0.809 | 0.761 | 0.681 | 0.548 | 0.527 | 0.493 | 0.531 | 0.425 |  |  |  |  |  |
| NCI-H1793 | 0.442 | 0.68 | 0.511 | 0.505 | 0.504 |  |  |  |  |  | 0.54 | 0.434 | 0.563 | 0.469 | 0.328 | 0.308 | 0.319 | 0.394 | 0.287 | 0.337 |
| NCI-H1563 |  |  |  |  |  | 0.9 | 0.814 | 0.741 | 0.83 | 0.98 |  |  |  |  |  |  |  |  |  |  |
| NCI-H1395 | 0.399 | 0.432 | 0.39 | 0.407 | 0.39 |  |  |  |  |  | 0.801 | 0.686 | 0.72 | 0.713 | 0.731 | 0.754 | 0.77 | 0.746 | 0.687 | 0.799 |
| NCI-H1299 |  |  |  |  |  | 1.07 | 1.1 | 1.04 | 1.02 | 1.06 |  |  |  |  |  |  |  |  |  |  |
| NCI-H2228 |  |  |  |  |  | 1.08 | 1.3 | 1.05 | 1.11 | 0.841 |  |  |  |  |  | 0.241 | 0.262 | 0.226 | 0.205 | 0.229 |
| NCI-H2170 | 0.877 | 0.796 | 0.812 | 0.775 | 0.735 |  |  |  |  |  | 0.438 | 0.463 | 0.446 | 0.417 | 0.465 | 0.729 | 0.631 | 0.654 | 0.63 | 0.614 |
| NCI-H2342 | 0.545 | 0.5 | 0.494 | 0.488 | 0.718 |  |  |  |  |  | 0.815 | 0.736 | 0.76 | 0.807 | 0.728 | 0.552 | 0.57 | 0.429 | 0.473 | 0.512 |
| A549 |  |  |  |  |  |  |  |  |  |  | 0.256 | 0.291 | 0.318 | 0.242 | 0.237 |  |  |  |  |  |
| NCI-H358 | 0.546 | 0.511 | 0.505 | 0.49 | 0.572 |  |  |  |  |  | 0.212 | 0.216 | 0.184 | 0.222 | 0.185 | 0.0977 | 0.105 | 0.0984 | 0.108 | 0.121 |
| CAL-12T | 0.649 | 0.549 | 0.603 | 0.427 | 0.513 | 1.02 |  | 0.849 |  | 0.816 |  |  |  |  |  | 0.264 | 0.309 | 0.227 | 0.276 | 0.244 |
| COR-L23 |  |  |  |  |  | 1.06 | 0.989 | 0.898 | 0.933 | 0.892 | 0.47 | 0.455 | 0.438 | 0.452 | 0.416 | 0.242 | 0.238 | 0.238 | 0.204 | 0.219 |
| IA-LM |  |  |  |  |  | 0.683 | 0.697 | 0.596 | 0.662 | 0.518 |  |  |  |  |  |  |  |  |  |  |
| NCI-H1650 |  |  |  |  |  | 0.218 | 0.21 | 0.178 | 0.204 | 0.227 | 0.447 | 0.453 | 0.438 | 0.403 | 0.45 | 0.483 | 0.541 | 0.55 | 0.397 | 0.419 |
| Calu-6 |  |  |  |  |  | 1 | 0.915 | 0.904 | 0.922 | 1.27 |  |  |  |  |  |  |  |  |  |  |
